How the values were obtained:
Format in all cases: functional, Homo sapiens
U2OS [1] = test: (§1) Here: values are normalized to the negative (DMSO; defined as 0% autophagy induction) and positive (250nM Torin1; mTOR inhibitor; defined as maximal inducer of autophagy = 100%) control compounds and represented as % of autophagy induction. […] The impact of autophagy induction on cells is complex and depends on the affected target. As such, the magnitude of a phenotype may not be equally mirrored in the %-value of autophagy induction and vice versa. The dynamics of the induction may indicate the mode of activation: e.g. activation via phosphorylation or a signaling cascade may occur fast, while activation via transcription factors may take considerably longer. […] Of note, treatment concentrations may be sub-optimal for specific compounds, leading to false negative annotations.; settings: Culturing Media DMEM, 1 % Penicillin/Streptomycin, 10% Fetal bovin serum Add-On: No, Screening Media Control DMEM, Screening Media Samples DMEM
TERT-RPE1 = test: as §1; settings: Culturing Media DMEM/F12 (1:1), 1 % Penicillin/Streptomycin, 10% Fetal bovin serum Add-On: No, Screening Media Control DMEM/F12 (1:1), Screening Media Samples DMEM/F12 (1:1)
U2OS [2] = test: as §1; settings: Culturing Media DMEM, 1 % Penicillin/Streptomycin, 10% Fetal bovin serum Add-On: No, Screening Media Control DMEM, Screening Media Samples DMEM; remark: listed apart in the source
[3] = Compound Concentration 0.5 uM, Timepoint 12 hours
[4] = Compound Concentration 0.5 uM, Timepoint 24 hours
[5] = Compound Concentration 0.5 uM, Timepoint 36 hours
[6] = Compound Concentration 0.5 uM, Timepoint 60 hours
[7] = Compound Concentration 2 uM, Timepoint 12 hours
[8] = Compound Concentration 2 uM, Timepoint 24 hours
[9] = Compound Concentration 2 uM, Timepoint 36 hours
[10] = Compound Concentration 2 uM, Timepoint 60 hours
[11] = Compound Concentration 10 uM, Timepoint 12 hours
[12] = Compound Concentration 10 uM, Timepoint 24 hours
[13] = Compound Concentration 10 uM, Timepoint 36 hours
[14] = Compound Concentration 10 uM, Timepoint 60 hours

| SMILES | autophagy induction (U2OS [1]; [3]) | autophagy induction (U2OS [1]; [4]) | autophagy induction (U2OS [1]; [5]) | autophagy induction (U2OS [1]; [6]) | autophagy induction (U2OS [1]; [7]) | autophagy induction (U2OS [1]; [8]) | autophagy induction (U2OS [1]; [9]) | autophagy induction (U2OS [1]; [10]) | autophagy induction (U2OS [1]; [11]) | autophagy induction (U2OS [1]; [12]) | autophagy induction (U2OS [1]; [13]) | autophagy induction (U2OS [1]; [14]) | autophagy induction (TERT-RPE1; [3]) | autophagy induction (TERT-RPE1; [4]) | autophagy induction (TERT-RPE1; [5]) | autophagy induction (TERT-RPE1; [6]) | autophagy induction (TERT-RPE1; [7]) | autophagy induction (TERT-RPE1; [8]) | autophagy induction (TERT-RPE1; [9]) | autophagy induction (TERT-RPE1; [10]) | also measured |
| --- | --- | --- | --- | --- | --- | --- | --- | --- | --- | --- | --- | --- | --- | --- | --- | --- | --- | --- | --- | --- | --- |
| CS(=O)(=O)NC[C@H]1CC[C@H](Nc2nc3c(s2)CCSc2ccccc2-3)CC1 | 7.101% | 7.652% | 1.469% | -11.3587% | 8.098% | 3.777% | 0.6599% | -6.18% | 6.84% | 4.331% | 3.398% | 7.256% | -4.034% | -8.281% | -9.381% | -11.7228% | -3.533% | -4.081% | -4.248% | -9.574% | autophagy induction (TERT-RPE1; [11]): -3.228%; autophagy induction (TERT-RPE1; [12]): -1.909%; autophagy induction (TERT-RPE1; [13]): 1.0286%; autophagy induction (TERT-RPE1; [14]): 5.565%; autophagy induction (U2OS [2]; [3]): -4.815%; autophagy induction (U2OS [2]; [4]): -2.571%; autophagy induction (U2OS [2]; [5]): -1.135%; autophagy induction (U2OS [2]; [6]): -2.5406%; autophagy induction (U2OS [2]; [7]): -10.1359%; autophagy induction (U2OS [2]; [8]): -5.225%; autophagy induction (U2OS [2]; [9]): -2.722%; autophagy induction (U2OS [2]; [10]): -2.833%; autophagy induction (U2OS [2]; [11]): -13.0428%; autophagy induction (U2OS [2]; [12]): -4.43%; autophagy induction (U2OS [2]; [13]): -4.437%; autophagy induction (U2OS [2]; [14]): -6.0772% |
| CSc1ccc(C(=O)N[C@@H]2CCCC[C@@H]2NC(=O)CNC(=O)c2cc(C(F)(F)F)ccc2NC(=O)NC(C)C)cc1 | -3.4763% | -6.206% | -3.128% | -12.7895% | 8.51% | 8.515% | 8.998% | -1.4223% | 3.613% | 5.882% | 6.117% | 10.5977% | -7.317% | -10.4362% | -10.5931% | -10.1253% | -7.697% | -8.893% | -11.9452% | -15.6367% | autophagy induction (TERT-RPE1; [11]): -4.351%; autophagy induction (TERT-RPE1; [12]): -5.968%; autophagy induction (TERT-RPE1; [13]): -5.344%; autophagy induction (TERT-RPE1; [14]): -2.567%; autophagy induction (U2OS [2]; [3]): -1.519%; autophagy induction (U2OS [2]; [4]): -1.673%; autophagy induction (U2OS [2]; [5]): -0.1292%; autophagy induction (U2OS [2]; [6]): -0.4268%; autophagy induction (U2OS [2]; [7]): 6.41%; autophagy induction (U2OS [2]; [8]): -0.3397%; autophagy induction (U2OS [2]; [9]): 0.2664%; autophagy induction (U2OS [2]; [10]): 0.6149%; autophagy induction (U2OS [2]; [11]): -6.202%; autophagy induction (U2OS [2]; [12]): -3.0141%; autophagy induction (U2OS [2]; [13]): -1.6234%; autophagy induction (U2OS [2]; [14]): -0.3642% |
| N#Cc1c(N)nc(SCC(N)=O)c(C#N)c1-c1ccc(OCC2CC2)cc1 | 13.384% | 10.3272% | 7.6764% | 5.5559% | 6.979% | 4.233% | 4.058% | 1.654% | 28.6221% | 28.519% | 26.7564% | 32.3548% | -0.3512% | -0.4647% | -3.4426% | -13.7976% | 6.426% | 7.278% | 5.568% | -4.471% | autophagy induction (TERT-RPE1; [11]): 18.2835%; autophagy induction (TERT-RPE1; [12]): 21.4433%; autophagy induction (TERT-RPE1; [13]): 22.9122%; autophagy induction (TERT-RPE1; [14]): 26.9726%; autophagy induction (U2OS [2]; [3]): 1.815%; autophagy induction (U2OS [2]; [4]): -1.199%; autophagy induction (U2OS [2]; [5]): -2.125%; autophagy induction (U2OS [2]; [6]): -2.448%; autophagy induction (U2OS [2]; [7]): 4.971%; autophagy induction (U2OS [2]; [8]): 0.9116%; autophagy induction (U2OS [2]; [9]): -0.4866%; autophagy induction (U2OS [2]; [10]): -0.2456%; autophagy induction (U2OS [2]; [11]): 12.9304%; autophagy induction (U2OS [2]; [12]): 7.609%; autophagy induction (U2OS [2]; [13]): 1.394%; autophagy induction (U2OS [2]; [14]): 0.5911% |
